Patent US20130217694A1, “METHOD OF REDUCING THE SEVERITY OF INFLAMMATORY DERMATOLOGICAL CONDITIONS” (Allergan, Inc.., priority 2003, published 2013)

Columns and labels:
[1] = molecular target: T1, hamster α-1B adrenergic receptor (Mesocricetus auratus, UniProt P18841); type: cell-based; conditions: for hamster α1B % E: percent efficacy relative to phenylephrine; for agonist activity at the α-1B receptor: result in words
T1 sequence (P18841 1-515): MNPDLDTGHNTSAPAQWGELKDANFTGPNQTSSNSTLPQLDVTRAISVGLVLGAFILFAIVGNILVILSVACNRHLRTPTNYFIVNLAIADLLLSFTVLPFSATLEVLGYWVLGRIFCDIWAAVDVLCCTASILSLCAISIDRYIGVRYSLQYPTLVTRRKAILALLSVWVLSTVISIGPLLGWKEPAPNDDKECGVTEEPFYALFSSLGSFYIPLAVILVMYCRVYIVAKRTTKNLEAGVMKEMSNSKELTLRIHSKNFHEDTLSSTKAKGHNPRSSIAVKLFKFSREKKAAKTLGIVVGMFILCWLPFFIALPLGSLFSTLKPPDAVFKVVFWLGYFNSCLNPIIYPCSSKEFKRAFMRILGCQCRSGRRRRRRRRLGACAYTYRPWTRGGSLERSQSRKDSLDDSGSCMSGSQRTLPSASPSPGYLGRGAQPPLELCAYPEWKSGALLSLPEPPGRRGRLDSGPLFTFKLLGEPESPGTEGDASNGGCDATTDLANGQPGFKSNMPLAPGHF
Procedure: (§1) The bovine α-1A and hamster α-1B receptor supernatants were added, in varying amounts, to naive HEK293 cells, which were then incubated for 48 hours. The transduced cell populations were replated at a lower density and grown in media containing 0.25 ug/ml puromycin. […] Receptor density was measured in a prazosin radioligand binding assay.
(§2) Intracellular Ca^+2 responses were measured as follows in HEK293 cells stably expressing either the bovine α-1A or hamster α-1B adrenergic receptor. Between 40,000 to 50,000 cells were plated per well in 96-well poly-D-lysine coated plates in 0.2 ml DMEM containing 10% heat-inactivated fetal calf serum, 1% antibiotic-antimycotic and 0.25 μg/ml puromycin one day prior to use. Cells were washed twice with HBSS supplemented with 10 mM HEPES, 2.0 mM CaCl2 and 2.5 mM probenicid, and subsequently incubated at 37° C. for 60 minutes with 4 μM Fluo-4 (Molecular Probes; Eugene, Oreg.). The extracellular dye was washed from the plates twice prior to placing the plates in the fluorometric imaging plate reader (FLIPR; Molecular Devices; Sunnyvale, Calif.). Ligands were diluted in HBSS and aliquoted into a 96-well microplate. Drugs were tested over the concentration range of 0.64 nM to 10,000 nM. Data for Ca^+2 responses were obtained in arbitrary fluorescence units.

[2] = molecular target: T2, bovine α-1A adrenergic receptor (Bos taurus, UniProt P18130); test: Intracellular Ca+2 response in HEK293 cells expressing bovine α-1A receptor; type: cell-based; conditions: for bovine α1A % E: percent efficacy relative to phenylephrine; for agonist activity at the α-1A receptor: result in words
T2 sequence (P18130 1-466): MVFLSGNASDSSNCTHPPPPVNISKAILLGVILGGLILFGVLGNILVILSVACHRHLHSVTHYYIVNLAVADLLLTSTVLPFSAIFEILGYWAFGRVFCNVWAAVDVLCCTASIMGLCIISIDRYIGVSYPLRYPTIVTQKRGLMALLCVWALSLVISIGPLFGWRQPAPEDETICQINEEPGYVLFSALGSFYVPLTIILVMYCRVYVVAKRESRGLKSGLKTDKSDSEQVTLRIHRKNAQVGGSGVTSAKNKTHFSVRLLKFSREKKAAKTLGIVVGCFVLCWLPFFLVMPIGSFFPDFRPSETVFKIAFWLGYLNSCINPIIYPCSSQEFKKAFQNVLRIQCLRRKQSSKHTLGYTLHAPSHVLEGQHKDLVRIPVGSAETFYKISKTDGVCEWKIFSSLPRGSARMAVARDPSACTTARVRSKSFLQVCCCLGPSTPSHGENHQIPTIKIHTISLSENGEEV
Procedure: as §1, §2

mice = conditions: intraperitoneal dosing, wildtype mice; result in words
Procedure: The tactile hypersensitivity of 5-6 mice per group was scored every five minutes between 15 and 50 minutes following intraperitoneal dosing. […] In addition, the locomoter activity of 5-6 mice per group was measured in a five minute period 30 minutes following intraperitoneal dosing. The locomoter activity relative to vehicle-treated animals was expressed as a percentage; percentage sedation was calculated as 100% minus the percent locomoter activity.

| SMILES | hamster α1B % E [1] | agonist activity at the α-1B receptor [1] | bovine α1A % E [2] | agonist activity at the α-1A receptor [2] | alleviation of sulprostone-induced tactile hypersensitivity in the absence of sedation (mice) |
| --- | --- | --- | --- | --- | --- |
| Clc1cccc(Cl)c1N=C1NCCN1 [Clonidine] | 63% | partial agonists | 62% | partial agonists |  |
| Brc1c(NC2=NCCN2)ccc2nccnc12 [Brimonidine, 5-bromo-6-(2-imidazolin-2-ylamino)quinoxaline] | 12% | no activity | 15% | weak activity | alleviates sulprostone-induced tactile hypersensitivity in the absence of sedation |
